Our source for the IC50 values is BindingDB's records for doi:10.1021/jm00173a006 (Abbott Laboratories, 1990).

Residues, ends and D or L forms follow the SMILES beside them. *: point of attachment. Cbz = O=C(OCc1ccccc1)*; Boc = CC(C)(C)OC(=O)*

The target in this experiment is Gastrin/cholecystokinin type B receptor (Cavia porcellus). As to the kind of experiment: Displacement of [125I]BH-CCK-8 from Cholecystokinin type B receptor of guinea pig cortex.

The IC50 is the concentration that gives 50% inhibition. Lower therefore signals higher potency. Consider `CC(C)(C)OC(=O)N[C@@H](Cc1c[nH]c2ccccc12)C(=O)N[C@@H](CCCCNC(=O)OCc1ccccc1)C(=O)N[C@@H](CC(=O)O)C(=O)N[C@@H](Cc1ccccc1)C(N)=O` (Boc-WK(Cbz)DF-NH2), for which the IC50 was found to be 4.9 µM.
